Read-outs that look alike come from different tables or passages of the source.
Key:
G401 cells [1] = experiment: CellTiter-Glo cellular viability assay, dose-response curves (FIG. 5B)
Method: (§2) Cell viability was assayed using a modified manufacturer's protocol for CellTiter-Glo® (Promega #G7573). Cells were seeded at a density of 2000 cells per well in a 96 well black, clear bottom plate (Corning #89091-012) in 100 uL total media per well. The following day different concentrations of compounds at various doses were printed in triplicate in a random well format using the Tecan D300e Digital Dispenser. After 120H, 60 μL of a 1:3 solution of CellTiterGlo reagent in 1×PBS (Corning #01018002) was added per well and allowed to incubate at RT for 10 mins. Luminescence was measured with an integration time of 0.1 s using Envision Microplates Reader (PERKIN ELMER #2105-0010). Biological replicates were averaged and normalized to vehicle control. Dose curves were generated using Graphpad Prism.

SH10TC cells [2] = experiment: as above
Method: as §2

[3] = test system: biomarker-presenting cell lines; experiment: Cytotoxicity of disulfiram metabolites to biomarker-presenting cell lines; assay type: cell-based; conditions: compared with the cytotoxicity of disulfiram (DSF)
Description: (§1) Biological replicates were averaged and normalized to vehicle control. Dose curves were generated using Graphpad Prism.

[4] = test system: PRISM cancer cell lines stratified by chromosome 16q status; experiment: PRISM multiplexed cellular viability assay (drug repurposing library); assay type: cell-based, human; conditions: for cell killing profile: PRISM screen, compared with other compounds of the drug repurposing library
Method: Parental cell lines were obtained from the Cancer Cell Line Encyclopedia (CCLE) project (1). PRISM cell line barcoding, pooling, and screening was performed as previously described with several improvements to the original method (2). First, the lentiviral vector was modified to encode the unique barcode identifier at the end of the puromycin resistance gene. This enables barcodes to be detected using a variant of the mRNA capture and Luminex detection method developed for the L1000 gene expression assay (3). Second, a set of ten inert barcodes were spiked-in to each well of each plate after cell lysis to control for variation in PCR amplification as detailed below.
MFI values were log-transformed (log MFI) and used to perform basic quality control. To detect probable screening artifacts, log MFI values were centered to the median log MFI for each cell line on each plate in order to put the measurements from each cell line on the same scale. For each well on each plate, the median of these centered values was then standardized according to the global median and global MAD across all plate wells in the same position. Data from wells with a standardized score of greater than 5 or less than −5 were excluded from all further processing steps.
Cell viability was calculated as the ratio of nMFI to the median of the nMFI from the DMSO-treated negative controls for each cell line on each plate. Batch effects produced from variable detection and assay conditions were then removed using ComBat (4). The final viability values were calculated as the median of the batch-corrected cell viabilities from biological replicates for each cell line, compound and dose.
Measures of dose response were obtained by fitting 3-parameter logistic curves to viability values for each compound and cell line using the R package ‘dre’. Following the practice of Smirnov and Safikhani (5), viability was truncated at 1.0 and fit as a function of drug concentration according to: […]
[formula] The Area Under the dose response Curve (AUC) was calculated using the normalized integral: […]

metastatic melanoma = conditions: cited from earlier work
SF295 cells = experiment: Viability of SF295 cells with or without CRISPR-Cas9 MTF1 knockout (FIG. 7); assay type: cell-based; conditions: MTF1 sg1 and MTF1 sg2 versus control guide GFP sg1
Description: XP003, XP023, psPAX, and pMD2.G vectors were acquired from the Broad Genetic Perturbation Platform (GPP). Oligos for sgRNAs designs were generated using Broad GPP sgRNA guide generator resource (broad institute.org/gpp/db/analysis-tools/sgrna-design) and the respective oligos were synthesized by Integrated DNA Technologies. In order to clone the sgRNAs into either the XPR003 guide only or XPRO23 all-in-one crispr lentiviral expression systems the protocol available on the Broad GPP website (broadinstitute.org/gpp/db/resources/protocols) was followed.
A mixture of 3E6 cells, virus, and media with 4 μg/mL polybrene (Millipore) at a total volume of 2 mL was plated per well of a 12 well plate. Cells were centrifuged at 2000 RPM for 2 hours at 30° C. After removal from incubator, 2 mL of fresh media was added to each well and cells were allowed to incubate at 37° C. overnight. The following day cells were selected for with puromycin for 3-10 days, or until the non-infected control cell were completely non-viable.
as §1

SH10TC cells [5] = test system: SH10TC cells
Method: as §2

G401 cells [6] = test system: G401 cells
Method: as §2

[7] = cited from earlier work
[8] = in chloroform, acetone and ether; cited from earlier work
[9] = order paclitaxel, elesclomol, disulfiram/thiram, DDC

CCN(CC)C(=S)S [DDC, Diethyldithiocarbamic acid]
cytotoxic activity (dose-response) (G401 cells [1]): active
rank of cytotoxicity IC50 among active agents (G401 cells [1]; [9]): highest IC50 value among those compounds that exhibited activity
cytotoxic activity (dose-response) (SH10TC cells [2]): active
rank of cytotoxicity IC50 among active agents (SH10TC cells [2]; [9]): highest IC50 value among those compounds that exhibited activity
biomarker-predicted cytotoxic activity [3]: retain the cytotoxicity

CCN(CC)C(=S)SSC(=S)N(CC)CC [disulfiram, Disulfiram]
disulfiram cytotoxicity (linear AUC) versus chromosome 16q status ([4]; Mann-Whitney U test, cell lines binned as 16q loss, normal, gain, 480 cell lines): strongly correlated with 16q loss
cytotoxic activity (dose-response) (G401 cells [1]): active
cytotoxic activity (dose-response) (SH10TC cells [2]): active

CN(NC(=O)CC(=O)NN(C)C(=S)c1ccccc1)C(=S)c1ccccc1 [elesclomol, Elesclomol]
progression-free survival (metastatic melanoma; phase III study, combined with paclitaxel, halted in 2013): did not significantly increase progression-free survival
progression-free survival (metastatic melanoma; small randomized phase II study, given in addition to paclitaxel): significantly increase progression-free survival
cell killing profile [4]: shared cell killing profile specific for cancer cell lines having 16q loss
cytotoxic activity (dose-response) (G401 cells [1]): active
cytotoxic activity (dose-response) (SH10TC cells [2]): active
effect of MTF1 knockout on sensitivity of SF295 cells (SF295 cells): sensitized

CCN(CC)C(=S)SC [methyl DDC, Methyl diethyldithiocarbamate]
cytotoxic activity (dose-response) (G401 cells [1]): inactive
cytotoxic activity (dose-response) (SH10TC cells [2]): inactive
biomarker-predicted cytotoxic activity [3]: not observed to be cytotoxic

CC(=O)O[C@H]1C(=O)[C@@]2(C)[C@H]([C@H](OC(=O)c3ccccc3)[C@]3(O)C[C@H](OC(=O)[C@H](O)[C@@H](NC(=O)c4ccccc4)c4ccccc4)C(C)=C1C3(C)C)[C@]1(OC(C)=O)CO[C@@H]1C[C@@H]2O [paclitaxel]
rank of cytotoxicity IC50 among active agents (SH10TC cells [5]): lowest IC50 value
rank of cytotoxicity IC50 among active agents (G401 cells [6]): lowest IC50 value
cytotoxic activity (dose-response) (G401 cells [1]): active
cytotoxic activity (dose-response) (SH10TC cells [2]): active

CN(C)C(=S)SSC(=S)N(C)C [thiram, Thiram]
cell killing profile [4]: shared cell killing profile specific for cancer cell lines having 16q loss
cytotoxic activity (dose-response) (G401 cells [1]): active
cytotoxic activity (dose-response) (SH10TC cells [2]): active
toxicity ([7]; by ingestion): moderately toxic
toxicity ([7]; if inhaled): highly toxic
solubility [8]: dissolve completely

copper(II) diethyldithiocarbamate [Cu-DDC]
biomarker-predicted cytotoxic activity [3]: retain the cytotoxicity
